Measured values published in PubChem BioAssay (NCI).
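Grown in 96-well plates, cells were treated for 48 hours with each compound at five concentrations. Insufficient inhibition: endpoint recorded as highest concentration tested. GI50: concentration for 50% inhibition of growth. TGI marks complete inhibition of growth.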

How the values were obtained:
Test in all cases: NCI-60 cell line screen, 48 h
A498 renal = tested on: A498 renal
K-562 leukemia = tested on: K-562 leukemia
SW-620 colon = tested on: SW-620 colon
NCI/ADR-RES ovarian = tested on: NCI/ADR-RES ovarian
SK-MEL-5 melanoma = tested on: SK-MEL-5 melanoma
CAKI-1 renal = tested on: CAKI-1 renal
UACC-62 melanoma = tested on: UACC-62 melanoma
HOP-92 NSCLC = tested on: HOP-92 NSCLC
SN12C renal = tested on: SN12C renal
SF-539 CNS = tested on: SF-539 CNS

Compound	GI50 (A498 renal)	TGI (A498 renal)	GI50 (K-562 leukemia)	TGI (K-562 leukemia)	GI50 (SW-620 colon)	TGI (SW-620 colon)	GI50 (NCI/ADR-RES ovarian)	TGI (NCI/ADR-RES ovarian)	GI50 (SK-MEL-5 melanoma)	TGI (SK-MEL-5 melanoma)	GI50 (CAKI-1 renal)	TGI (CAKI-1 renal)	GI50 (UACC-62 melanoma)	TGI (UACC-62 melanoma)	GI50 (HOP-92 NSCLC)	TGI (HOP-92 NSCLC)	GI50 (SN12C renal)	TGI (SN12C renal)	GI50 (SF-539 CNS)	TGI (SF-539 CNS)
CCC(C)[C@H](NC(=O)Nc1cc(C(F)(F)F)cc(C(F)(F)F)c1)C(=O)N[C@@H](Cc1cn(C)cn1)C(=O)OC (some centres undefined)	1.6 µM	3.4 µM	1.06 µM	2.44 µM	0.69 µM	1.53 µM	3.78 µM	5.57 µM	0.59 µM	1.27 µM	2.08 µM	4 µM	1.11 µM	1.86 µM	1.31 µM	1.89 µM	0.544 µM	1.05 µM	1.32 µM	1.83 µM
O=C(Nc1cccc(O)c1)c1ccc(NC2=C(Cl)C(=O)N(Cc3ccc(Cl)cc3Cl)C2=O)cc1	15 µM	29.3 µM	1.08 µM	3.96 µM	2.21 µM	6.42 µM	21.6 µM	48.1 µM	4.71 µM	9.73 µM	1.92 µM	3.58 µM	5.31 µM	9.96 µM	1.86 µM	4.16 µM	1.99 µM	4.09 µM	6.32 µM	11.8 µM
CC1(C)CNc2cc(NC(=O)c3cccnc3NCc3ccncc3)ccc21	12.5 µM	> 79.7 µM	19.9 µM	> 100 µM	48.2 µM	> 100 µM	25.1 µM	> 100 µM	16 µM	30.8 µM	21.1 µM	> 100 µM	12.9 µM	48.4 µM	19.4 µM	80.6 µM	25.5 µM	> 100 µM	7.5 µM	58.9 µM
Cc1ccc(/C=N/Nc2nc(Nc3ccccc3)nc(-n3nc(C)cc3C)n2)cc1	7.13 µM	92.4 µM	3.71 µM	42.7 µM	5.75 µM	> 100 µM	2.53 µM	8.67 µM	1.77 µM	7.44 µM	2.56 µM	9.45 µM	4.44 µM	24.2 µM	2.28 µM	10.9 µM	3.11 µM	92.4 µM	4.5 µM	25.1 µM
COC(=O)C1=C(O)[C@H](C(=O)OC)C2(O)C(C(=O)OC)[C@H](c3ccc(OC(=O)C(C)c4ccc(CC(C)C)cc4)cc3)C[C@@H]1[C@@H]2C(=O)OC (some centres undefined)	–	–	0.695 µM	> 50 µM	18.1 µM	> 50 µM	> 50 µM	> 50 µM	15 µM	> 50 µM	> 50 µM	> 50 µM	9.41 µM	22.4 µM	32.8 µM	> 50 µM	9.58 µM	22.9 µM	1.4 µM	8.05 µM
O=C(/C=C\c1ccc([N+](=O)[O-])cc1)c1ccccc(=O)c1O	–	9.59 µM	–	> 30.9 µM	–	> 21.6 µM	–	2.97 µM	–	2.38 µM	–	4.61 µM	–	3.13 µM	–	7.77 µM	–	> 100 µM	–	–
Cc1cc2c(cc1Cl)S/C(=C/C(=O)O)C(Nc1ccc3ncsc3c1)=NS2(=O)=O	–	–	42.8 µM	> 100 µM	16.3 µM	> 56 µM	> 18.1 µM	> 34.7 µM	> 14.6 µM	> 24 µM	22.1 µM	> 48.9 µM	33.5 µM	> 57.7 µM	7.76 µM	21.5 µM	16.5 µM	> 64.8 µM	9.66 µM	> 34.6 µM
CC1=C(c2ccccc2)C(O)(c2ccccc2)C(C)C1=O (centres undefined)	–	–	4.71 µM	> 100 µM	6.18 µM	> 100 µM	2.95 µM	9.94 µM	14 µM	> 100 µM	24.6 µM	> 100 µM	9.97 µM	> 100 µM	4.07 µM	65 µM	15.4 µM	> 100 µM	17.1 µM	> 100 µM
Cc1csc2[n+]1-c1ccccc1N(C(=O)Nc1ccccc1)C(C)C2 (centres undefined)	–	–	> 100 µM	> 100 µM	41 µM	> 100 µM	25.1 µM	88.4 µM	42.6 µM	> 100 µM	84.9 µM	> 100 µM	60.4 µM	> 100 µM	41.7 µM	> 100 µM	> 100 µM	> 100 µM	–	–
COc1cc(/C=C/C(=O)/C=C/c2ccc(-n3ccnc3C)cc2)ccc1O	10.4 µM	23.7 µM	3.32 µM	> 100 µM	2.23 µM	5.63 µM	14.5 µM	> 100 µM	3.25 µM	11.9 µM	3.06 µM	10.9 µM	4.49 µM	21.3 µM	10.1 µM	45.6 µM	2.36 µM	6.63 µM	2.19 µM	5.53 µM
CCOCCCn1c2c(c3c(O)cccc31)C(=O)c1ccccc1-2	21.7 µM	52.5 µM	18.6 µM	55.7 µM	28.4 µM	> 100 µM	20.8 µM	56.5 µM	15.8 µM	29.8 µM	21.6 µM	64.1 µM	14.5 µM	30.1 µM	16.8 µM	43.3 µM	11.5 µM	25.5 µM	24.7 µM	63.3 µM
CNC(=O)c1c(NC(=O)c2ccc(C(C)(C)C)cc2)sc2c1CCC(=O)C2	0.647 µM	3.62 µM	0.0659 µM	> 100 µM	0.0984 µM	1.27 µM	0.313 µM	1.29 µM	0.349 µM	1.33 µM	0.203 µM	0.945 µM	0.262 µM	1.28 µM	0.358 µM	2.03 µM	0.333 µM	1.4 µM	0.244 µM	1.22 µM
COc1ccc2c(c1)c(-c1nc(-c3c[nH]c4ccncc34)cs1)cn2C	1.65 µM	3.09 µM	0.716 µM	2.47 µM	1.75 µM	3.27 µM	1.76 µM	3.38 µM	1.65 µM	3.02 µM	1.64 µM	3.03 µM	1.82 µM	3.35 µM	1.64 µM	3.33 µM	1.69 µM	3.24 µM	1.65 µM	3.09 µM
